According to article PMC8810773, “Structure-based prediction of HDAC6 substrates validated by enzymatic assay reveals determinants of promiscuity and detects new potential substrates” (Scientific Reports, 2022):

Molecular target: T1, HDAC6 catalytic domain 2 (DD2) (Danio rerio, UniProt F8W4B7)
T1 construct: cloning the residues 440–798 of the Danio rerio HDAC6 gene into a modified pET28a(+) vector; 6xHis (N, cleaved yes); made in house; host or cells: E. coli BL21(DE3)
T1 sequence (F8W4B7 440-798): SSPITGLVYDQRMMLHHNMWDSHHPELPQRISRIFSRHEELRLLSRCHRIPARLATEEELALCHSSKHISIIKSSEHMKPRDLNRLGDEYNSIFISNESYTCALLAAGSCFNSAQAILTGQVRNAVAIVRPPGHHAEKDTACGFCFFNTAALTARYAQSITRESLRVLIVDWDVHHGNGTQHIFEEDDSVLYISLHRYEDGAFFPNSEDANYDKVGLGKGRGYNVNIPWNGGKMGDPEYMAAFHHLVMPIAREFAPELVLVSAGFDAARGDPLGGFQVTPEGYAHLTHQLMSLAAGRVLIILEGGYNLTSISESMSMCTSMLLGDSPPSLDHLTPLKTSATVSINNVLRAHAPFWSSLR
Test: Enzyme-coupled acetate detection assay ('acetate assay') of HDAC6-catalyzed peptide deacetylation
Assay type: biochemical
Conditions: Michaelis–Menten fit ± standard error; for kcat/KM: 10–2000 μM monoacetylated substrate, 0.1–1 μM HDAC6 DD2, 50 mM HEPES pH 8.0, 137 mM NaCl, 2.7 mM KCl, 1 mM MgCl2, 30 °C, NADH fluorescence, lower limits where KM below detection limit
Description: We used an enzyme-coupled acetate detection assay, or simply the ‘acetate assay’ (see “Methods”), developed and applied previously[12],[27], to measure the catalytic efficiency (kcat/KM) of HDAC6. We measured catalysis of deacetylation of acetylated peptides with sequences taken from known substrate proteins, as well as a set of selected peptides with reported acetylation sites that were available to us from previous studies (Table 1). […] To ensure an accurate determination of kcat/KM we measured HDAC6-catalyzed deacetylation at a minimum of four peptide concentrations, with at least two concentrations below KM (Fig. 1, squares). A total of 26 peptides which met these criteria formed our training set (D-TRAINING, Table 1). Additionally, we included 16 peptides where the value of kcat was measured accurately but the KM value was lower than the limit of detection for the acetate assay (~ 10–20 μM substrate, circles in Fig. 1) allowing only the determination of a lower limit for the value of kcat/KM (set D-CAPPED, see below and Table 1). The measured kcat/KM values span the range of three orders of magnitude.
Figure 1 Dependence of deacetylation rate on substrate concentration for two representative peptides catalyzed by HDAC6, measured using the acetate assay. The initial velocity for each substrate concentration was determined from a linear regression of a time course consisting of a minimum of three timepoints, standard error is shown. The kinetic parameters are determined from a nonlinear least square fit of the Michaelis–Menten equation to the data and are listed in Table 1. Black squares: example of data which met the criteria to produce accurate kcat/KM values. Green circles: example of overfit data resulting in calculation of a lower limit for kcat/KM, due to the KM being lower than the detection limit of the assay.
The coupled acetate detection assay or simply the ‘acetate assay’ was performed as previously described with a few modifications. Briefly, lyophilized peptides were re-suspended in water when possible or with minimal quantities of acid, base, or organic solvent to improve solubility. Peptide concentration was determined by one or more of the following methods: (1) measuring A280 using the extinction coefficients if the peptide contained a tryptophan or tyrosine, using the fluorescamine assay if the peptide contained a free lysine, (2) performing the bicinchoninic acid (BCA) assay using bovine serum albumin (BSA) as a standard, and (3) determining the concentration of acetate produced by complete deacetylation of the peptide by HDAC6.
Reactions containing 10–2000 μM monoacetylated peptides in 1× HDAC6 assay buffer (50 mM HEPES, pH 8.0, 137 mM NaCl, 2.7 mM KCl, 1 mM MgCl2) were initiated with 0.1–1 μM HDAC6 at 30 °C. […]

Substance: RKSTGG(K-ac)APRKQL [13-mer: RKSTGG(K-ac)APRKQL, H3 K14ac 13-mer peptide]
- kcat/KM: 140,000±10,000 M^−1 s^−1
- kcat/KM (listed as 13-mer peptide analog): 140000 M⁻¹ s⁻¹
- kcat (HDAC6 DD2, pH 8.0, 30 °C): 4.1 ± 0.3 s⁻¹
- Km (HDAC6 DD2, pH 8.0, 30 °C, detection limit ~10–20 μM substrate): 28 ± 5 µM
